Data taken from US8372594B2, “Secreted phospholipase A2 biomarkers for arthritis” (Case Western Reserve University, priority 2009, dated 2013).

How the values were obtained:
sPLA2-IIA = biological target: T1, sPLA2-IIA (Homo sapiens, UniProt P14555); assay: inhibition of sPLA2-IIA activity; format: biochemical; conditions: finding of the present invention
T1 sequence (P14555 21-144): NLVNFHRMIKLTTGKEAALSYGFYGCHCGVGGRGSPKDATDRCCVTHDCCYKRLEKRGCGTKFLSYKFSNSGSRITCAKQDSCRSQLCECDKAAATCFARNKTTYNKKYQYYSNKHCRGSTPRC

several sPLA2 isoforms = assay: inhibition of several sPLA2 isoforms; format: biochemical

Structure (SMILES) | preferential inhibition of sPLA2-IIA (sPLA2-IIA) | inhibition of the activity of several sPLA2 isoforms (several sPLA2 isoforms)
CCc1c(C(=O)C(N)=O)c2c(OCC(=O)O)cccc2n1Cc1ccccc1 [Compound B] | preferentially inhibit sPLA2-IIA | –
CCc1c(C(=O)C(N)=O)c2c(OC)cc3ccccc3c2n1Cc1ccccc1 [R0032107A] | preferentially inhibit sPLA2-IIA | –
CCc1c(C(=O)C(N)=O)c2c(OCC(=O)O)cc3ccccc3c2n1Cc1ccccc1 [R0050907A] | – | inhibits the activity of several sPLA2 isoforms
